Measurements from patent publication WO2007139036A1, “Compound for controlling endoplasmic reticulum stress, and pharmaceutical composition comprising the compound as active ingredient” (Meiji Dairies Corp, priority 2006, dated 2007).

Experiments:
[1] = tested on: MIN6 cells; assay: Secondary screening: oxidative stress (H2O2)-derived cell death suppression, MIN6 cells; format: cell-based, mouse; set-up: key to oxidative stress-derived cell death inhibitory effect (class symbol): 一: 細胞死抑制効果無し; +: その中間程度の抑制効果を有する; ++: ダントロ レンの細胞死抑制効果と同程度; conditions: H2O2 66 μM, 24 h; for oxidative stress-derived cell death inhibitory effect, compared with N-acetylcysteine (NAC): NAC 1000 μM
[2] = other models; cited from earlier work
[3] = tested on: CHOP; assay: CHOP expression by Northern blot, MIN6 cells; format: cell-based, mouse
[4] = tested on: rat Parkinson disease model; conditions: cited from earlier work
[5] = tested on: GRP78; assay: GRP78 expression by Northern blot, MIN6 cells; format: cell-based, mouse
[6] = tested on: kidney (proximal) tubule cells; assay: Third screening: mouse endoplasmic reticulum stress model (tunicamycin), kidney tubules, HE and TUNEL; format: in vivo; conditions: 10 mg/kg/day intraperitoneal daily for 4 days before tunicamycin 1 mg/kg
[7] = tested on: XBP1; assay: XBP1 activation by RT-PCR, MIN6 cells; format: cell-based, mouse
[8] = tested on: heme-oxygenase 1 (HO-1); assay: HO-1 expression by Northern blot, MIN6 cells; format: cell-based, mouse
[9] = tested on: MIN6 cells; assay: Intracellular protein synthesis by metabolic labeling (35S-Met), MIN6 cells; format: cell-based, mouse; conditions: incubated for more than 24 hours
[10] = Patent Document 1 (JP 2005-247728); cited from earlier work
[11] = pre-administration from 24 h before H2O2 and simultaneous administration

Structure (SMILES): O=c1cc(-c2ccccc2)oc2ccccc12 [flavone]
- oxidative stress-derived cell death inhibitory effect, compared with N-acetylcysteine (NAC) [1]: 効果はやや小さかった
- oxidative stress-derived cell death inhibitory effect, compared with α-tocopherol and β-carotene [1, 11]: 同程度の効果が認められた

Structure (SMILES): COc1ccc(-c2cc(=O)c3c(OC)c(OC)c(OC)c(OC)c3o2)cc1OC [IN69, nobiletin]
- oxidative stress-derived cell death inhibitory effect (class symbol) [1, 11]: 士
- neuroprotective activity [2]: neuroprotective

Structure (SMILES): COc1ccc(-c2cc(=O)c3c(OC)c(OC)c(OC)c(OC)c3o2)cc1 [IN19, tangeretin]
- expression of CHOP [3]: also increased
- neuroprotective activity [4]: neuroprotective
- oxidative stress-derived cell death inhibitory effect, compared with N-acetylcysteine (NAC) [1]: 効果はやや小さかった
- oxidative stress-derived cell death inhibitory effect, compared with α-tocopherol and β-carotene [1, 11]: 同程度の効果が認められた
- expression of GRP78 [5]: at least not increased
- tissue damage in renal tubules ([6]; kidney on day 4 after tunicamycin): ほぼ完全に抑制された
- cell death in renal tubules ([6]; kidney on day 4 after tunicamycin (TUNEL)): ほぼ完全に抑制された
- activation of XBP1 [7]: involves administration of IN19
- expression of heme-oxygenase 1 (HO-1) [8]: also increased
- intracellular protein synthesis (decreased to) [9]: about 60%

Structure (SMILES): CCCCCC=CCC=CCCCCCCCC(=O)OCC(COP(=O)(O)OCCN)OC(=O)CCCCCCCC=CCC=CCCCCC (stereo not drawn) [ジリノレオイルホスファチジルエタノールァミン, dilinoleoylphosphatidylethanolamine]
- cell death induction suppressing activity [10]: 細胞死誘導抑制活性
- endoplasmic reticulum stress suppressing activity [10]: 小胞体ストレス抑制活性

Structure (SMILES): COc1ccc(-c2cc(=O)c3c(OC)c(OC)c(OC)cc3o2)cc1OC [IN88, sinensetin]
- oxidative stress-derived cell death inhibitory effect, compared with N-acetylcysteine (NAC) [1]: 効果はやや小さかった
- oxidative stress-derived cell death inhibitory effect, compared with α-tocopherol and β-carotene [1, 11]: 同程度の効果が認められた
